The source of these data is patent US9567368B2, “Peptide tyrosinase activators” (Escape Therapeutics, Inc., priority 2013, dated 2017).

Where no end group is shown, it is not given here.

The test system of series [1] is mushroom tyrosinase. Description: Assay of mushroom tyrosinase activity (L-tyrosine substrate, dopachrome at 475 nm). It is filed as biochemical. As to conditions: for mushroom tyrosinase activity increase: 1 millimolar. As for the experimental part:
The effect of pentapeptides P9 and P10 on mushroom tyrosinase activity was determined in vitro using L-tyrosine as the substrate (see, for example, Piao et al., Chem. Pharm. Bull. (Tokyo), 2002, 50: 309-311). The experiment was conducted in a 96-well flat-bottomed plate. Each well contained 80 microliters of 0.067 molar potassium phosphate buffer (pH 6.8), 40 microliters of 5 milligrams per milliliter L-tyrosine dissolved in 0.067 molar potassium phosphate buffer (pH 6.8), 40 microliters of the different concentrations of P9 or P10 dissolved in the same buffer, and 40 microliters of 480 units per milliliter mushroom tyrosinase solution. The final volume of each well was 200 microliters, containing […] L-tyrosine, 96 units per millileter tyrosinase and varying concentrations of P9 or P10, ranging from 30 micromolar to 1 millimolar. In the control wells, P9 and P10 were substituted with buffer solution and adjusted to a 200 microliters total volume. The assay mixture was incubated at 37 degrees Celsius and optical density (OD), which correlates to the amount of dopachrome produced, was measured periodically at 475 nanometers using a microplate reader (e.g., a Varioskan microplate reader from Thermo Electron Corporation).
FIGS. 4A and 4B show mushroom tyrosinase activity increased by 123±4 percent and 156±4 percent at 1 millimolar P9 and P10, respectively. […] In the control wells, the reaction mix included purified mushroom tyrosinase, PBS (pH 6.8) and substrate L-tyrosine. In the other triplicate wells, P9 or P10 were added at various concentrations. The reaction was incubated at 37 degrees Celsius and the plate was read periodically at 475 nanometers.

The nature of series [2]: MTT proliferation and viability assay. Format: cell-based. As to conditions: mouse, B16 cells, percentage of control, read-out: proliferation rate. As for the experimental part:
Proliferation rates were determined using a general cell proliferation kit (e.g., TACS® MTT Cell Proliferation Kit from R&D systems). Cells were plated at 2.5×10E4 per well in 96-well plates in a humidified atmosphere with 5 percent CO2 at 37 degrees Celsius. Twenty-four hours after plating, test samples were added and cultures were incubated for an additional 72 hours. The remainder of the procedure was performed following the manufacturer's protocol.
(§1) For the tyrosinase activity, the reaction mixture containing 100 microliter of freshly prepared substrate solution [0.1 percent L-DOPA in 0.1 moles per liter sodium phosphate (pH 6.8)] and 50 microliters of enzyme solution was incubated at 37 degrees Celsius. The absorbance change was measured during the first 10 minutes of the reaction while the increase of the absorbance was linear, and corrections for auto-oxidation of L-DOPA in the controls were made. Activities were expressed as a percentage of the control cells. MTT was performed following the manufacturer's protocol. Data are expressed as a percentage of control and are mean±SEM of three separate experiments.

The target of series [3] is T1, B16 tyrosinase (Mus musculus, UniProt P11344).
T1 construct: host or cells: B16-F1 mouse melanoma cells
T1 sequence (P11344 19-533): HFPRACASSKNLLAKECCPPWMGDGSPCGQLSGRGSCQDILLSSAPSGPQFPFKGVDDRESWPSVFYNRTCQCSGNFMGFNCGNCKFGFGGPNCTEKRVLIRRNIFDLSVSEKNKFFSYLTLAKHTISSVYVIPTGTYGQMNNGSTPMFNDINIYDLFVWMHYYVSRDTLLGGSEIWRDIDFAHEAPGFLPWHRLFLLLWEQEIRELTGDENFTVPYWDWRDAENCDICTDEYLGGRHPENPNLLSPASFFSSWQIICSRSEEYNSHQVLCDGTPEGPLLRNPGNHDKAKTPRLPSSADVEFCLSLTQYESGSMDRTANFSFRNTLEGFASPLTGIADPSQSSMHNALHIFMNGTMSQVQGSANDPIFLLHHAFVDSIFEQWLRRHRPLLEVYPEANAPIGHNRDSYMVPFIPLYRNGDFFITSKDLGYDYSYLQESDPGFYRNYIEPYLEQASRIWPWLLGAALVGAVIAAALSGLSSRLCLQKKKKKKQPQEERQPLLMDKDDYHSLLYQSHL
Nature of the series: Assay of B16 tyrosinase activity (DOPA oxidase activity). Format: cell-based. As to conditions: for B16 tyrosinase activity increase: 72 hours incubation, relative to control cells; for EC50: approximate, see FIG. 3, read-out: EC 50 (dose that produces half the maximum response). As for the experimental part:
(§2) B16-F1 mouse melanoma cells (CRL-6323) were obtained and cultured in DMEM containing 10 percent fetal bovine serum, 100 units per milliliter (U/mL) penicillin, 0.1 mg/mL streptomycin, and 0.25 microgram per milliliter (μg/mL) amphotericin B at 37 degrees Celsius in a humidified 95 percent air/5 percent CO2 incubator. Drug treatment began 24 hours after seeding. Cells were harvested 72 hours later and melanin content and tyrosinase activity determined in triplicate.
Tyrosinase activity was assayed as DOPA oxidase activity. This can be according to traditional or modified assaying methods (see, for example, Yang et al., Acta Pharmacol. Sin. 2006, 27: 1467-1473). Cells were washed twice with PBS and lysed with 20 […] (mmol/L) Tris-0.1 percent Triton X-100 (pH 7.5). Tyrosinase activity was analyzed spectrophotometrically by following the oxidation of DOPA to DOPAchrome at 475 nanometers. The reaction mixture containing 100 microliter (μL) of freshly prepared substrate solution [0.1 percent L-DOPA in 0.1 mol/L sodium phosphate (pH 6.8)] and 50 microliters (μL) of enzyme solution was incubated at 37 degrees Celsius. Absorbance change was measured during the first 10 minutes of the reaction while the increase of the absorbance was linear, and corrections for auto-oxidation of L-DOPA in the controls were made. Activities were expressed as a percentage of control cells.
as §1

Series [4] deals with B16-F1 mouse melanoma cells. Description: Melanin content measurement (extracellular and intracellular) in B16 cells. Format: cell-based. As to conditions: relative to control. As for the experimental part: as §2
Extracellular melanin was estimated spectro-photometrically based on its absorption of light at 475 nanometers. After 72 hours treatment period, medium was collected and centrifuged (800×g for 10 minutes) and absorbance read at 475 nanometers. For intracellular melanin content, cells were collected by centrifugation and resuspended in PBS. Aliquots were removed for cell counting and protein estimation. To the remaining suspension, an equal volume of ethanol:ether (1:1 volume to volume) was added in order to remove opaque substances other than melanin which is not soluble in ethanol/ether (see, for example, Oikawa et al., Yale J. Biol. Med., 1973, 46: 500-507). After further centrifugation at 3000×g for 5 minutes, the precipitate was solubilized by treatment with 1 milliliter of 1 N NaOH solution at 80 degrees Celsius for 30 minutes in capped tubes. The absorbance was measured at 475 nanometers and compared to a standard curve prepared from standard dopa-melanin dissolved in the same solution. Melanin content per microgram (μg) cellular protein was calculated and expressed as a percentage of control.
FIGS. 2A-2B show the effect of P9 and P10 on extracellular and intracellular melanin content. […] In a specific embodiment, general materials and methods include 3×10E5 B16 cells per well incubated for 72 hours. Control wells had media only. Other treatments were 600 micromolar L-tyrosine; 50 microgram per milliliter scoparone; 300 micromolar IBMX; 300 micromolar P9; and 300 micromolar P10. Data are expressed as a percentage of the control and are mean±SEM of three separate experiments and analyzed by one-way ANOVA. On the graph, for the bar corresponding to extracellular data (indicated by “*”), P<0.01 versus extracellular control, and for the second bar corresponding to intracellular data (indicated by “**”), P<0.01 versus intracellular control.

The test system of series [5] is purified mushroom tyrosinase. Nature of the series: Allosteric activation of tyrosinase after inhibition by 6BH4. It is filed as biochemical. As for the experimental part: To investigate the mechanism by which P9 and P10 exert their stimulatory effect on tyrosinase, 6BH4, an allosteric inhibitor of tyrosinase, was used in an experiment. In a 96-well plate, control wells containing substrate L-tyrosine, purified mushroom tyrosinase, and PBS (pH 6.8) were incubated at 37 degrees Celsius and periodically read at 475 nanometers. After 6 minutes, 20 micromolar 6BH4 was added to all wells except controls. At minute 12, the other triplicate wells received one of the following reagents: 20 micromolar of α-MSH, 100 micromolar of P4, P9, or P10, or 200 micromolar L-tyrosine.
In a 96-well plate the control wells contained substrate L-tyrosine, purified mushroom tyrosinase and PBS (pH 6.8). The plate was incubated at 37 degrees Celsius and periodically read at 475 nanometers. After six minutes, 6BH4 was added to all wells except the control triplicate. At minute 12, the other triplicate wells received one of the following reagents: 10 micromolar of α-MSH, 100 micromolar of P4, P9 or P10, and 200 micromolar L-tyrosine. Data shown are mean±SEM of three independent runs.

The mark [6] stands for this setting: 300 micromolar, 72 hours incubation.
Setting [7] is: 10 micromolar α-MSH added at minute 12 after 6BH4.
Setting [8] is: 600 micromolar L-tyrosine, 72 hours.

Turning to YRSRK [P10, YRSRK], the “mushroom tyrosinase activity increase” value in series [1] is on record as 156±4%. In addition, the dopachrome formation increase is given as 45±3% in series [1] (30 micromolar) and 134±3% in series [1] (300 micromolar). Also, the viability at 72 h, 10 millimolar in series [2] was determined as 95 ± 2%. Moreover, the “B16 tyrosinase activity increase” value in series [3] (3 millimolar) is 91±6%; in series [3] (300 micromolar), 48±5%. The EC50 in series [3] was around 300 µM. For the same compound, the “intracellular melanin content increase” value in series [4] (setting [6]) is on record as 62±6%.
In the case of “α-Melanocyte Stimulating Hormone [α-MSH]”, in series [5] (setting [7]), the “reversal of 6BH4-dependent tyrosinase inhibition (reactivation of the enzyme)” value is recorded as “reactivated the enzyme” and the “tyrosinase activity after reactivation, compared with control” value is on record as “increased its activity to levels exceeding the control”.
Turning to `N[C@@H](Cc1ccc(O)cc1)C(=O)O` [L-tyrosine], the “reversal of 6BH4-dependent tyrosinase inhibition” value in series [5] (200 micromolar L-tyrosine added at minute 12 after 6BH4) is “neither the addition of P4 nor L-tyrosine reversed”. In addition, in series [4] (setting [8]), the “extracellular melanin content increase” value worked out at 43±5% and the “intracellular melanin content increase” value is 7±3%.
On to `CC(C)Cn1c(=O)n(C)c(=O)c2[nH]cnc21` [IBMX, 3-isobutyl-1-methylxanthine], for which, in series [4] (setting [6]), the “extracellular melanin content increase” value is recorded as 187±9% and the “intracellular melanin content increase” value came to 67±6%.
For `COc1cc2ccc(=O)oc2cc1OC` [scoparone, Scoparone], the “intracellular melanin content increase” value in series [4] (50 microgram per milliliter scoparone, 72 hours) was 53±6.9%.
With YSSWY [P9, YSSWY], in series [1], the “mushroom tyrosinase activity increase” value was 123±4%. Besides, the dopachrome formation increase came out at 28±3% in series [1] (30 micromolar) and 100±3% in series [1] (300 micromolar). The viability at 72 h, 10 millimolar in series [2] was 94 ± 2%. Besides, the figures for the “B16 tyrosinase activity increase” value in series [3] (3 millimolar) and in series [3] (300 micromolar) were 84±3% and 38±4%, respectively. Further, the EC50 in series [3] is around 300 µM. In addition, the “extracellular melanin content increase” value in series [4] (setting [6]) amounted to 170%. Further, the “intracellular melanin content increase” value in series [4] (setting [6]) is reported as 47±6%.
On to `C[C@H](O)[C@H](O)[C@H]1CNc2nc(N)[nH]c(=O)c2N1` [6BH4, (6R)-L-erythro-5,6,7,8-tetrahydrobiopterin], for which, in series [5] (20 micromolar 6BH4 added after 6 minutes), the “inhibition of tyrosinase activity” value is “inhibited completely”.
